US7531575B2, “Method of modulating cellular activity and agents useful for same” (Eberhard-Karls-Universität Tübingin, priority 2002, dated 2009)

Columns and labels:
Assay type in all cases: cell-based, murine
iNOS [1] = experiment: iNOS activity by Griess assay (NO2 release), IFN-γ-stimulated N9 microglia; conditions: N9 cells, IFN-γ 200 u ml, 48 h
Experimental: Tranilast was a generous gift of Kissei Pharmaceuticals (Nagano, Japan). Murine recombinant IFN-γ was purchased from Boehringer (Mannheim, Germany). Dexamethasone (DEX) was obtained from Sigma (Deisenhofen, Germany). N9 murine microglial cells were a kind gift from P. Ricciardi-Castagnoli (Milano, Italy) (Righi, M., Mori, L., De Libero, G., Sironi, M., Biondi, A., Mantovani, A., Donini, S. D. and Ricciardi-Castagnoli, P. Eur J Immunol 19(8):1443-1448, 1989). The cells were cultured in Dulbecco's modified Eagle's medium (DMEM) supplemented with 10% foetal calf serum (FCS), 2 mM glutamine and penicillin ([…])/streptomycin (100 μg ml), and maintained at 37° C. in an atmosphere of 5% CO2. Viability was assessed by crystal violet staining.
iNOS activity was assessed by the Griess assay as described elsewhere (Rieger, J., Stander, M., Loschmann, P. A., Heneka, M., Dichgans, J., Klockgether, T. and Weller, M., Oncogene, 17:2323-2332, 1998). Briefly, conditioned supernatant (100 μl) was incubated with an equal volume of 1% sulphanilamide/0.1% naphthyl ethylene diamine dihydrochloride/2.5% H3PO4 (Griess reagent) (Green, L. C., Wagner, D. A., Glogowski, J., Skipper, P. I., Wishnok, J. S, and Tannenbaum, S. R., Anal. Biochem., 126:131-138, 1982), incubated for 5 min at room temperature, and the absorbance at […] determined. Solutions of NaNO2 diluted in DMEM served as standards. The absorbance readings resulting from DMEM alone were subtracted from the sample values. Cell density was assessed using crystal violet staining to control for differences in cell proliferation. iNOS activity is thus expressed here as NO2 accumulated per 48 h per 10^5 cells.

NF-κB = NF-κB reporter assay, IFN-γ-stimulated N9 microglia; conditions: N9 cells, IFN-γ 200 u ml, tranilast 30-300 μM, 4 h preincubation
Experimental: N9 murine microglial cells were seeded in a 96-well plate (8×10^3 well) and allowed to adhere for 24 h. The cells were transfected with an NK-κB cis-reporter gene plasmid (PathDetect* no. 219077, Stratagene) which encodes firefly luciferase in a NF-κB-dependent-manner. For each transfection, 0.2 μg DNA and 0.6 μl FuGene (Roche, Mannheim, Germany) were used. The cells were either co-transfected with 0.02 μg of the pFC-Mekk positive control plasmid, included in the NF-κB cis-reporting system from Stratagene, or with the pcDNA-3 plasmid, to maintain a constant amount of total DNA. In order to assess the unspecific background, a control transfection with pcDNA-3 only was included in all experiments. After 24 h the cells were washed twice with PBS (0.12 M NaCl, 0.01 M NaH2PO4×H2O, 0.031 M K2HPO4) and lysed using 40 μl well of Cell Lysis Buffer (mM):tricine pH 7.8 40, NaCl 50, EDTA 2, MgSO4 1, DTT 5, 1% Triton* X-100, all from Sigma. To optimize lysis, a freeze-thaw cycle was performed. Then the lysate was transferred to a LumiNunc™ plate (Nunc, Roskilde, Denmark). Luciferase assay reagent (100 μl) containing (mM): tricine pH 7.8 40, MgSO4 10, EDTA 0.5, DTT 10, coenzyme A 0.5 and beetle luciferin 0.5, ([…]), (all from Sigma) were added and luminescence was measured in a LumimatPlus (EG&G Berthold, Pforzheim, Germany). […]

iNOS [2] = experiment: iNOS protein immunoblot, LPS-stimulated N9 microglia; conditions: TNL 300 μM
Description: (§1) TNL was a generous gift of Kissei Pharmaceuticals, LPC (Escherichia coli, 0127:BS), phorbol 12-myristate 13-acetate (PMA) and dexamethasone (DEX) were obtained from Sigma, BAY 11-7082 (BAY), NF-κB SN50 inhibitory peptide (SN50), GF 109203X (GFX) and rottlerin (ROT) were purchased from Biomol. PD098059 (PD) was obtained from Calbiochem. Purified murine interferon-γ (IFN-γ) was purchased from Roche Diagnostics. N9 murine microglial cells were a kind gift from P. Ricciardi-Castagnoli (Righi, M. et al. 1989 supra). Cells were cultured in Dulbecco's modified Eagle's medium (DMEM) supplemented with 10% fetal calf serum (FCS), 2 mM glutamine, penicillin (100 unit/mL) and streptomycin (100 μg/mL) and maintained at 37° in an atmosphere of 5% CO2. Viability was assessed by crystal violet staining.
For the preparation of whole cell lysates, the cells were lysed in 0.1 M Tris-HCl (pH 7.2) containing 0.1% NP40, 0.1 mM EDTA and 5 μg/mL phenylmethylsulphonyl fluoride. Twenty micrograms protein was separated by 10-12% SDS-PAGE and electroblotted on nitrocellulose membrane. Equal loading was controlled by Ponceau S staining. Immunodetection was performed using the following antibodies: anti-iNOS rabbit polyclonal antibody (1:1000, Cayman), antiphospho-IκBα mouse monoclonal antibody (1:1000), anti-PKCδ mouse monoclonal antibody (1:2000), antiphospho-MARCKS rabbit polyclonal antibody (1:1000), antiphospho-ERK-1/2, antiphospho-AKT, antiphospho-p38 mouse monoclonal antibodies (1:2000), anti-ERK-1/2, anti-AKT mouse monoclonal antibodies (1:500, all from Signal Transduction Laboratories). Bands were visualized using horseradish peroxidase-conjugated anti-rabbit IgG (1:4000 SantaCruz) or anti-mouse IgG (1:4000, Amersham).

inhibitory-κB (I-κB) = experiment: phospho-IκBα immunoblot, LPS-stimulated N9 microglia; conditions: N9 cells, 1 hr, TNL pre-incubation 1 hr
Description: as §1
(§2) For the preparation of whole cell lysates, the cells were lysed in 0.1 M Tris-HCl (pH 7.2) containing 0.1% NP40, 0.1 mM EDTA and 5 μg/mL phenylmethylsulphonyl fluoride. Twenty micrograms protein was separated by 10-12% SDS-PAGE and electroblotted on nitrocellulose membrane. Equal loading was controlled by Ponceau S staining. […]

ERK-2 = experiment: phospho-ERK-1/2 immunoblot, LPS-stimulated N9 microglia: ERK-2; conditions: N9 cells, LPS 10 μg/mL 10 min
Description: as §1, §2

COc1ccc(/C=C/C(=O)Nc2ccccc2C(=O)O)cc1OC [tranilast, 2-[[3-(3,4-dimethoxyphenyl)-1-oxo-2-propenyl]amino]benzoic acid]
inhibition of NO release (iNOS [1]; concentration series): concentration-dependent inhibition | reduction of NO release (NO2, Griess assay) (iNOS [1]; tranilast 300 μM): 65% | NF-κB reporter gene activity in response to IFN-γ (NF-κB): concentration-dependent suppression | accumulation of iNOS protein after LPS (iNOS [2]; N9 cells, LPS 10 μg/mL): suppressed | PMA superinduction of iNOS protein in LPS-stimulated cells (iNOS [2]; PMA 100 nM 15 min, LPS 10 μg/mL 24 hr): abolished | LPS-mediated phosphorylation of I-κB (inhibitory-κB (I-κB)): did not suppress | reduction of phospho-ERK-2 (densitometry) (ERK-2; 300 μM TNL): 80% | ERK-2 phosphorylation after LPS (ERK-2; TNL pre-incubation 1 hr, concentration series): concentration-dependent inhibition
